According to the NIST ThermoML archive (doi:10.1016/j.jct.2004.12.008):
± gives the expanded uncertainty stated by the source.

Experiment: xn = mol fraction of the nth substance listed
Settings: 101 kPa, Liquid

O=[N+]([O-])c1ccccc1 [nitrobenzene] + Cc1ccccc1C
Settings	mass density [kg/m3]
323.15 K, x2 = 0.4345	1014.79 ± 0.79
323.15 K, x2 = 0.4902	996.28 ± 0.71
323.15 K, x2 = 0.5689	970.68 ± 0.91
323.15 K, x2 = 0.6321	950.58 ± 1.1
323.15 K, x2 = 0.7024	928.68 ± 1.2
323.15 K, x2 = 0.7842	903.78 ± 1.4
323.15 K, x2 = 0.8725	877.55 ± 1.6
323.15 K, x2 = 0.9432	857.03 ± 1.8
333.15 K, x2 = 0	1160.59 ± 1.9
333.15 K, x2 = 0.0598	1135.86 ± 1.8
333.15 K, x2 = 0.1132	1114.33 ± 1.6
333.15 K, x2 = 0.1935	1082.9 ± 1.3
333.15 K, x2 = 0.2491	1061.75 ± 1.2
333.15 K, x2 = 0.3011	1042.41 ± 1
333.15 K, x2 = 0.3672	1018.4 ± 0.82
333.15 K, x2 = 0.4189	1000.06 ± 0.68
333.15 K, x2 = 0.4783	979.42 ± 0.85
333.15 K, x2 = 0.5389	958.84 ± 1
333.15 K, x2 = 0.5901	941.8 ± 1.1
333.15 K, x2 = 0.6598	919.09 ± 1.3
333.15 K, x2 = 0.7243	898.58 ± 1.5
333.15 K, x2 = 0.7929	877.26 ± 1.6
333.15 K, x2 = 0.8687	854.25 ± 1.8
333.15 K, x2 = 0.9244	837.72 ± 2
343.15 K, x2 = 0	1148 ± 1.9
343.15 K, x2 = 0.0587	1121.63 ± 1.6
343.15 K, x2 = 0.1321	1089.78 ± 1.4
343.15 K, x2 = 0.1849	1067.6 ± 1.2
343.15 K, x2 = 0.2378	1045.95 ± 1
343.15 K, x2 = 0.3012	1020.73 ± 0.84
343.15 K, x2 = 0.3519	1001.09 ± 0.69
343.15 K, x2 = 0.4242	973.86 ± 0.89
343.15 K, x2 = 0.4981	946.94 ± 1.1
343.15 K, x2 = 0.5533	927.38 ± 1.3
343.15 K, x2 = 0.6232	903.27 ± 1.4
343.15 K, x2 = 0.6623	890.09 ± 1.6
343.15 K, x2 = 0.7429	863.56 ± 1.8
343.15 K, x2 = 0.8122	841.44 ± 1.9
343.15 K, x2 = 0.8823	819.66 ± 2.1
343.15 K, x2 = 0.9422	801.51 ± 2.3
353.15 K, x2 = 0	1134.61 ± 1.8
353.15 K, x2 = 0.0623	1103.66 ± 1.5
353.15 K, x2 = 0.1133	1079.21 ± 1.3
353.15 K, x2 = 0.1892	1044.18 ± 1
353.15 K, x2 = 0.2489	1017.71 ± 0.82
353.15 K, x2 = 0.3129	990.32 ± 0.76
353.15 K, x2 = 0.3798	962.71 ± 0.98
353.15 K, x2 = 0.4124	949.61 ± 1.1
353.15 K, x2 = 0.483	922.01 ± 1.3
353.15 K, x2 = 0.5345	902.52 ± 1.5
353.15 K, x2 = 0.6084	875.41 ± 1.7
353.15 K, x2 = 0.6631	855.98 ± 1.8
353.15 K, x2 = 0.7249	834.64 ± 2
353.15 K, x2 = 0.7931	811.8 ± 2.2
353.15 K, x2 = 0.852	792.66 ± 2.3
353.15 K, x2 = 0.9123	773.59 ± 2.5
